# Patent US20110118277A1, “METHOD OF TREATING LIVER DISEASE” (priority 2003, published 2011)
# Columns and labels:
# LIN^−ve/Thy-1^+ve cells = assay: Flow cytometry of putative bone marrow-derived hepatic progenitors in liver of HMCDE-fed mice; assay type: in vivo, mouse; conditions: FIG. 4C, P<0.03 (PRZ), <0.05 (6-OHDA)
# Excerpt: The hepatic non-parenchymal cell fraction, which contains the oval cell population and the NK-T cell populations, were isolated as described in Hepatology 1998; 27:433-455 and Gastroenterology 2002; 123:[…]. Briefly, livers were carefully removed and homogenized in Stomacher80 (Seawood, England). The homogenate was then passed through a 100-μm wire mesh and liver cells were collected by centrifugation at 450 g. Mononuclear cells were purified from this fraction by centrifugation at 900 g over 35% Percoll gradients (Amersham Pharmacia Biotech) and incubated with normal mouse serum (Sigma, St Louis, Mo.) and Fc-receptor block (anti-CD16/CD32) to prevent nonspecific binding, plus APC-conjugated anti-mouse Thy-1.2 (the C57BL-6 form of the Thy-1 antibody) and antibodies directed against hematopoietic lineage markers (LIN, a mix of anti-mouse CD4, CD8, CD3, CD45, CD19, Mac-1, Gr-1, Ter119). For NK-T cell labelling, the mononuclear cells were incubated with […] anti-mouse NK-1.1 and PE-conjugated anti-mouse CD3. […] After incubation, pellets were washed to remove unbound antibodies, fixed with 2% formaldehyde and evaluated by FACS (Becton Dickenson). […] Data was analyzed by Cell Quest software (Becton Dickenson) to determine changes in these cell populations in different treatment groups.
# VEGF = assay: Ribonuclease protection assay of whole liver RNA: VEGF; assay type: in vivo, mouse; conditions: RPA, normalized to GAPDH, mean±SEM of 4 mice, HMCDE diet
# Description: (§1) Total […] was isolated from frozen liver samples according to the method of Chomczynski and Sacchi as described in Gastroenterology 2002; 123: 1304-1310. KNA concentration was determined by optical density and quality was assessed by agarose gel electrophoresis and ethidium bromide staining. Commercial ribonuclease protection assay (RPA) kits with probes for murine cytokines (PharMingen, San Diego, Calif.) were used to evaluate factors that might be involved in the recruitment and expansion of HPC after liver injury. The factors studied were Stem Cell Factor (SCF), Hepatocyte Growth Factor (HGF), Interleukin-7 (IL-7), IL-11, Leukaemia Inhibitory Factor (LEF), Granulocyte-Macrophage Colony Stimulating Factor (GM-CSF), Granulocyte Colony, Stimulating Factor (G-CSF), Vascular Endothelial Growth Factor (VEGF), and its receptors, VEGFR1 and VEGFR3. Details of the RPA are described in J Pathol 2003; 199:191-200.
# (§2) Total RNA was isolated from frozen liver samples as described in Mech Dev 120: 117-130, 2003. RNA concentration was determined by optical density and quality assessed by agarose gel electrophoresis and ethidium bromide staining. […]
# (§3) In Table 1, Total liver RNA was obtained from 4 mice per treatment group and analyzed by RPA 20 μg RNA sample from each mouse was evaluated. Results are normalized to concurrently assessed expression of GAPDH in the same RNA samples. […]
# HGF = assay: Ribonuclease protection assay of whole liver RNA: HGF; assay type: in vivo, mouse; conditions: for effect on HMCDE-induced increase of hepatic HGF expression: versus HMCDE alone; for Gene Expression HGF: whole liver RNA, RPA, normalized to GAPDH, mean±SEM of 4 mice, HMCDE diet
# Description: as §1
# Total RNA was isolated from frozen liver samples as described in Mech Dev 120: 117-130, 2003. RNA concentration was determined by optical density and quality assessed by agarose gel electrophoresis and ethidium bromide staining. Ribonuclease protection assay (RPA) kits with probes for murine cytokines (PharMingen, San Diego, Calif.) were used to evaluate factors that might be involved in the recruitment and expansion of HPC after liver injury. The factors studied were Stem Cell Factor (SCF), Hepatocyte Growth Factor ([…]), Interleukin-6 (IL-6), IL7, IL-11, Leukaemia Inhibitory Factor (LIF), Granulocyte-Macrophage Colony Stimulating Factor (GM-CSF), Macrophage Colony Stimulating Factor (M-CSF), Granulocyte Colony Stimulating Factor (G-CSF), Vascular Endothelial Growth Factor (VEGF), and its receptors, VEGFR1 and YEGFR3.
# In Table 1, Total liver RNA was obtained from 4 mice per treatment group and analyzed by RPA 20 μg RNA sample from each mouse was evaluated. Results are normalized to concurrently assessed expression of GAPDH in the same RNA samples. Data shown are the mean±SEM results of 4 mice per treatment group. Similar results were obtained in a second experiment.
# [1] = tested on: bone marrow-derived hematopoietic progenitors; conditions: treatment of mice, shown hitherto; cited from earlier work
# VEGFR1 = assay: Ribonuclease protection assay of whole liver RNA: VEGFR1; assay type: in vivo, mouse; conditions: RPA, normalized to GAPDH, mean±SEM of 4 mice, HMCDE diet
# Description: as §1, §2, §3
# VEGFR3 = assay: Ribonuclease protection assay of whole liver RNA: VEGFR3; assay type: in vivo, mouse; conditions: RPA, normalized to GAPDH, mean±SEM of 4 mice, HMCDE diet
# Description: as §1, §2, §3
# oval cells = assay: Immunohistochemical count of hepatic oval cells (HPC) in HMCDE-fed mice; assay type: in vivo, mouse; conditions: FIGS. 4A-4C, immunohistochemistry (and flow cytometry), P<0.001
# Description: Immunohistochemical analysis of HPC was performed with a mouse monoclonal OV6-type antibody (from Dr Stuart Sell, Albany Medical College, Albany, N.Y.) reacting with cytokeratins 14 and 19; a rabbit polyclonal antibody against 56 and 64 kD human callus cytokeratins (Dako, Denmark) and a rat monoclonal antibody to cytokeratin 19 as described Am J Pathol 2002; 161:521-530.
# Details of the staining procedures are as described Am J Pathol 2002; 161:521-530. Briefly, 4 um thick paraffin sections were deparaffinized and rehydrated, followed by heating in a microwave oven for 10 minutes at 750 Watt in citrate buffer, pH 6.0. Incubation with the primary antibodies was performed at room temperature for 30 minutes. Mouse monoclonal OV6 antibody and rat anti-cytokeratin 19 were detected using the DAKO Animal Research Kit, peroxidase (Dako, Denmark). The rabbit polyclonal antibody against 56 and 64 kD human callus cytokeratins was detected by anti-rabbit Envision (Dako, Denmark) as described in J Pathol 2003; 199:191-200. […]
# To evaluate the effect of treatments on the HPC compartment, coded samples were examined by an experienced liver pathologist blinded to treatment groups. For each liver section, the number of HPC in 5, randomly selected, non-overlapping, high power (×40 objective) fields was counted. […] Interlobular bile ducts were not considered progenitor cells and, thus, were not counted as such.
# G-CSF = assay: Ribonuclease protection assay of whole liver RNA: G-CSF; assay type: in vivo, mouse; conditions: RPA, normalized to GAPDH, mean±SEM of 4 mice, HMCDE diet
# Description: as §1, §2, §3
Structure (SMILES),LIN^−ve/Thy-1^+ve cells in liver versus HMCDE diet alone (LIN^−ve/Thy-1^+ve cells),Gene Expression VEGF (VEGF),effect on HMCDE-induced increase of hepatic HGF expression (HGF),Gene Expression HGF (HGF),mobilization of hematopoietic progenitors [1],Gene Expression VEGFR1 (VEGFR1),Gene Expression VEGFR3 (VEGFR3),oval cell / HPC number versus HMCDE diet alone (oval cells),Gene Expression G-CSF (G-CSF)
"NCCc1cc(O)c(O)cc1O [6-OHDA, 6-hydroxydopamine]",more LIN^−ve/Thy-1^+ve cells,2.3 ± 0.5,did not augment this response,2.4 ± 0.75,mobilize bone marrow-derived hematopoietic progenitors into the circulation,0.4 ± 0.1,2.1 ± 1.0,significantly augments diet-induced HPC expansion,1.4 ± 0.3
"COc1cc2nc(N3CCN(C(=O)c4ccco4)CC3)nc(N)c2cc1OC [PRZ, prazosin]",more LIN^−ve/Thy-1^+ve cells,1.4 ± 0.4,did not augment this response,2.1 ± 0.30,mobilize bone marrow-derived hematopoietic progenitors into the circulation,0.2 ± 0.2,1.7 ± 0.4,significantly augments diet-induced HPC expansion,1.0 ± 0.3
